The text below walks through data of patent publication US20130053406A1, “THERAPEUTIC COMPOUNDS AND USES THEREOF” (Myrexis, Inc., priority 2009, published 2013).

In one assay the test system is HCT116 cells. Description: Cytotoxicity assay (ATPLite, 72 hours). Conditions: Homo sapiens, HCT-116, ATPLite luminescence. The format is cell-based. The method, then: HCT116 cells are seeded into black 96-well plates at 5,000 cells per well in 100 microliters (DMEM supplemented with 10% serum) and are incubated overnight. […] Plates are equilibrated to room temperature (5 min). Fifty microliters lysis buffer followed by 50 microliters substrate solution (ATPLite [2 step], Perkin-Elmer, #601941) is added to each well, and plates are incubated at room temperature 5 minutes. Luminescence is then measured (TopCount, Perkin-Elmer).
A general note: Cellular ATP, detected with luciferase, serves as a proxy for viable cell number.

In a further assay the target is purified human Hsp90. As to the kind of experiment: Hsp90 binding assay (fluorescence polarization, displacement of BODIPY-geldanamycin). The following applies: displacement of BODIPY-GM (10 nM) from purified human Hsp90 (30 nM), overnight at room temperature.

Structures are written as SMILES.

As usually defined, the IC50 is the midpoint of a concentration-inhibition curve. Read a high IC50 as a need for much substance.

Procedure for purified human Hsp90: Plates are incubated overnight at room temperature. Parallel and perpendicular fluorescence measurements are read (LJL BioSystems Analyst AD plate reader) at excitation/emission wavelengths of 485/530 nm. Background fluorescence (buffer only) is subtracted, and fluorescence polarization (FP) values, expressed in mP units, are calculated from parallel and perpendicular fluorescence readings as follows:
Percent inhibition is calculated by normalizing the FP values to those obtained in parallel reactions containing DMSO and subtracting these normalized values from 100%. Intrinsic compound fluorescence is independently monitored, and FP data points confounded by compound fluorescence are excluded from the analysis.

On to `[2H]C1([2H])Oc2cc(Br)c(Sc3nc4c(N)ncnc4n3CCC3CCN(C(=O)[C@H](C)O)CC3)cc2O1` [(2S)-1-[4-(2-{6-amino-8-[(6-bromo-2,2-d2-benzo[d][1,3]dioxol-5-yl)sulfanyl]-9H-purin-9-yl}ethyl)piperidin-1-yl]-2-hydroxypropan-1-one], for which the IC50 turned out to be 1200 nM in the assay with HCT116 cells and 250 nM on purified human Hsp90.

Consider `[2H]C1([2H])Oc2cc(Br)c(Sc3nc4c(N)ncnc4n3CCC3CCN(C(=O)[C@H](C)OC(C)=O)CC3)cc2O1` [(2S)-1-[4-(2-{6-amino-8-[(6-bromo-2,2-d2-benzo[d][1,3]dioxol-5-yl)sulfanyl]-9H-purin-9-yl}ethyl)piperidin-1-yl]-1-oxopropan-2-yl acetate], for which the IC50 with HCT116 cells amounted to 730 nM; on purified human Hsp90, 78 nM.
